According to US20230117034A1, “PYRAZOLOTRIAZINES” (Bayer Aktiengesellschaft, priority 2019, published 2023):

Assays:
Format in all cases: cell-based
[1] = target: T1, CYCLIN K (nuclear staining in CAL-120 cells) (Homo sapiens, UniProt O75909); assay: CYCLIN K nuclear protein level: immunofluorescence high content analysis (CAL-120); settings: 24 h, 50% reduction of nuclear CCNK staining intensity, median, read-out: CYCLIN K degradation IF, DC50-[mol/l] (median)
T1 construct: endogenous in cells; host or cells: CAL-120 human breast cancer cells (DSMZ ACC 459)
How it was run: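 CAL-120 breast cancer cells treated in dose-response for 24 h at 37 °C, PFA-fixed and immunostained for cyclin K with Hoechst counterstain. Confocal imaging quantified nuclear intensity; DC50 is the concentration giving 50% reduction of nuclear CCNK staining, normalized to DMSO and control.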

[2] = tested on: CAL-120, human breast adenocarcinoma cells; assay: Proliferation assay CAL-120 (crystal violet, 4 days); settings: Homo sapiens, CAL-120, 96 h, CAL-120 cells, median, read-out: Prolif-CAL-120, IC50-[mol/l] (median)
How it was run: (§1)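 Cells seeded at 4,000/well in medium with 10% FCS; after 24 h, compounds added at 0.01-10 µmol/L (0.1% DMSO) for 4 days. Glutaraldehyde-fixed, crystal violet-stained, absorbance at 595 nm normalized to zero-point plate (0%) and untreated cells (100%); IC50 by 4-parameter fit.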

[3] = target: T2, CDK12 (nuclear staining in CAL-120 cells) (Homo sapiens, UniProt Q9NYV4); assay: CDK12 nuclear protein level: immunofluorescence/high content analysis (CAL-120); settings: for DC50: CAL-120 cells, 24 h, immunofluorescence, 50% reduction of nuclear CDK12 staining intensity, median, read-out: CDK12 degradation IF, DC50- [mol/l] (median); for (IC50 CDK12 high ATP) to (Degradation DC50 CDK12) ratio: ratio of IC50 CDK12 high ATP kinase assay to DC50 CDK12 degradation (IF, CAL-120)
T2 construct: endogenous in cells; host or cells: CAL-120 human breast cancer cells (DSMZ ACC 459)
How it was run: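 CAL-120 cells were treated with compound for 24 h at 37 °C, fixed with PFA and immunostained for CDK12. Nuclear CDK12 intensity was quantified by automated image analysis and normalized to DMSO and control. DC50 is the concentration giving 50% reduction of nuclear staining.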

[4] = tested on: MDA-MB-231, human breast cancer cells; assay: Proliferation assay MDA-MB-231 (crystal violet, 4 days); settings: Homo sapiens, MDA-MB-231, 96 h, MDA-MB-231 cells, median, read-out: Prolif-MDA MB-231, IC50-[mol/l] (median)
How it was run: as §1

T2 sequence (Q9NYV4 whole entry): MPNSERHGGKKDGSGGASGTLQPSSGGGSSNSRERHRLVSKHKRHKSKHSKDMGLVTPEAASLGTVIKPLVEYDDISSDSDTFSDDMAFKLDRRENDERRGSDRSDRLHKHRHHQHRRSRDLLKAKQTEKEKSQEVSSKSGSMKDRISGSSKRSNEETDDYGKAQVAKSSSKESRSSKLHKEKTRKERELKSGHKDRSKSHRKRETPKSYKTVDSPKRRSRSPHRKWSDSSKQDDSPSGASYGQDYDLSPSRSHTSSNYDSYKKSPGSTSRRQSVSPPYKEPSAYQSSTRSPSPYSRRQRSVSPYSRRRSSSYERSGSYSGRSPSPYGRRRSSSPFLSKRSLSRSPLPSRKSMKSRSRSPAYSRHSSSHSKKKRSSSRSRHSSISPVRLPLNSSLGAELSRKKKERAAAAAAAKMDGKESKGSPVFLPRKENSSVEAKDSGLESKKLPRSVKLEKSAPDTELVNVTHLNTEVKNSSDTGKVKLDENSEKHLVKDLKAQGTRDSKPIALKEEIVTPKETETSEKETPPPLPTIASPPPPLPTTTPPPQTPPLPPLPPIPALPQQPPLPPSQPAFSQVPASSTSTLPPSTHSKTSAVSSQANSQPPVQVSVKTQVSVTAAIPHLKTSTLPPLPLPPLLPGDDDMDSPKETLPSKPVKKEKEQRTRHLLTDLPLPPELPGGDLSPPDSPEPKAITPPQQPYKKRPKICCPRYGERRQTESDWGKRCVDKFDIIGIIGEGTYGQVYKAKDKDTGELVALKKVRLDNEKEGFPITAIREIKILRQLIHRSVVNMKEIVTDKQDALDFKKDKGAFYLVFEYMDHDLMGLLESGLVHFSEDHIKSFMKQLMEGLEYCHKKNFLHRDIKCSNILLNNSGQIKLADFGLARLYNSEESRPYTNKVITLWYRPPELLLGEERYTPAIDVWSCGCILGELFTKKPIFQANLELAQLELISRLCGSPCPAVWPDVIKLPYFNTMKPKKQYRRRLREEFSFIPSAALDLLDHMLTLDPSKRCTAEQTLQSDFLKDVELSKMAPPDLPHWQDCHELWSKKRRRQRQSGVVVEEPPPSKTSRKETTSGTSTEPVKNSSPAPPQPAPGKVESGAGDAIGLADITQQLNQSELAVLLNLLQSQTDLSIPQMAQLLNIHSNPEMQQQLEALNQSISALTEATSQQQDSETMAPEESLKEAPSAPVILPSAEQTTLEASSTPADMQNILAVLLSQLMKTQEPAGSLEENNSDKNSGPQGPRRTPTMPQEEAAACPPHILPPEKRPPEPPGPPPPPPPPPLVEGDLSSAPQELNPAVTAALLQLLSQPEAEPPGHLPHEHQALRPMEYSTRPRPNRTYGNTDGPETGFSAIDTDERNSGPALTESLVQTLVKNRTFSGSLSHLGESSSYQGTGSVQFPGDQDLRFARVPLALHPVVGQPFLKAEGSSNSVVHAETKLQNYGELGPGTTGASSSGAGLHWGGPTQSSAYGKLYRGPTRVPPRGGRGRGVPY
T2 sequence (O75909 whole entry partner): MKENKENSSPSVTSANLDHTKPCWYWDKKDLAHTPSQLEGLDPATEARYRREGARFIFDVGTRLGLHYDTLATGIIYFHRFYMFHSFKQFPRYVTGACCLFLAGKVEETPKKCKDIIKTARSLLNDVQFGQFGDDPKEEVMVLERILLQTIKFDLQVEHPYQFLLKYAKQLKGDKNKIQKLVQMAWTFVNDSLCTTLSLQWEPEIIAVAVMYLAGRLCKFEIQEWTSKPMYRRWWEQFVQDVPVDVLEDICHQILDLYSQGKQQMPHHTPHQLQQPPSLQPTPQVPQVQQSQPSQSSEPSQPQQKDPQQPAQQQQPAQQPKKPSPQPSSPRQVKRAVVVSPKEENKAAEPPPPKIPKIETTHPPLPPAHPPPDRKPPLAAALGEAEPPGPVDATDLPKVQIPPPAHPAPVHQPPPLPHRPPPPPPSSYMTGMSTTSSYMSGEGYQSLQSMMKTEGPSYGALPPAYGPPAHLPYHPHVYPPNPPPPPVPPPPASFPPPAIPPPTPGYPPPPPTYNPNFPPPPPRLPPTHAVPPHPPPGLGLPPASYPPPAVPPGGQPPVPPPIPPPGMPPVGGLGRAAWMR
T1 sequence (O75909 whole entry): as the sequence (O75909 whole entry partner) above
T1 sequence (Q9NYV4 whole entry partner): as the sequence (Q9NYV4 whole entry) above

`c1ccc2[nH]c(CNc3nc(N4C[C@@H]5C[C@H]4CO5)nc4c(C5CC5)cnn34)nc2c1` [Example 254, N-[(1H-benzimidazol-2-yl)methyl]-8-cyclopropyl-2-[(1S,4S)-2-oxa-5-azabicyclo[2.2.1]heptan-5-yl]pyrazolo[1,5-a][1,3,5]triazin-4-amine] was tested, and the DC50 [1] was 4.17 nM, the IC50 [2] was 87.7 nM and the DC50 [3] was 8.47 nM. The “(IC50 CDK12 high ATP) to (Degradation DC50 CDK12) ratio” value [3] was >2361 and the IC50 [4] was 181 nM.
`CN1CCN(c2nc(NCc3nc4cc(F)c(Cl)cc4[nH]3)n3ncc(C4CC4)c3n2)CC1` [Example 309, N-[(6-chloro-5-fluoro-1H-benzimidazol-2-yl)methyl]-8-cyclopropyl-2-(4-methylpiperazin-1-yl)pyrazolo[1,5-a][1,3,5]triazin-4-amine] showed a DC50 [1] of 0.914 nM, an IC50 [2] of 4.11 nM and a DC50 [3] of 8.53 nM. For the same compound, the “(IC50 CDK12 high ATP) to (Degradation DC50 CDK12) ratio” value [3] was >2346 and the IC50 [4] was 6.31 nM.
In the case of `Fc1ccc2[nH]c(CNc3nc(N4C[C@H]5CC[C@@H](C4)N5)nc4c(C5CC5)cnn34)nc2c1F` [Example 294, 8-cyclopropyl-2-[(1R,5S)-3,8-diazabicyclo[3.2.1]octan-3-yl]-N-[(4,5-difluoro-1H-benzimidazol-2-yl)methyl]pyrazolo[1,5-a][1,3,5]triazin-4-amine], the DC50 [1] is reported as 0.56 nM, the IC50 [2] is reported as 1.42 nM and the DC50 [3] is reported as 2.73 nM. The “(IC50 CDK12 high ATP) to (Degradation DC50 CDK12) ratio” value [3] was 684 and the IC50 [4] was 3.37 nM.
In the case of `Fc1ccc2[nH]c(CNc3nc(N4CC5CCC(C4)N5)nc4c(C(F)(F)F)cnn34)nc2c1F` [Example 310, 2-(3,8-diazabicyclo[3.2.1]octan-3-yl)-N-[(4,5-difluoro-1H-benzimidazol-2-yl)methyl]-8-(trifluoromethyl)pyrazolo[1,5-a][1,3,5]triazin-4-amine], the DC50 [1] is reported as 0.29 nM, the IC50 [2] is reported as 1.74 nM and the DC50 [3] is reported as 17.3 nM. For the same compound, the “(IC50 CDK12 high ATP) to (Degradation DC50 CDK12) ratio” value [3] was 75 and the IC50 [4] was 3.48 nM.
`N[C@@H]1CN(c2nc(NCc3nc4ccccc4[nH]3)n3ncc(Br)c3n2)CC12CC2` [Example 251, 2-[(7S)-7-amino-5-azaspiro[2.4]heptan-5-yl]-N-[(1H-benzimidazol-2-yl)methyl]-8-bromopyrazolo[1,5-a][1,3,5]triazin-4-amine] showed a DC50 [1] of 0.11 nM, an IC50 [2] of 6.6 nM and a DC50 [3] of 0.145 nM. For the same compound, the “(IC50 CDK12 high ATP) to (Degradation DC50 CDK12) ratio” value [3] was 6727 and the IC50 [4] was 2.73 nM.
With `CC1(O)CCN(c2nc(NCc3nc4ccccc4[nH]3)n3ncc(Br)c3n2)C1` (single isomer, unassigned) [Example 282, (3R or S)-1-(4-{[(1H-benzimidazol-2-yl)methyl]amino}-8-bromopyrazolo[1,5-a][1,3,5]triazin-2-yl)-3-methylpyrrolidin-3-ol] the IC50 [2] was 45.2 nM, the DC50 [3] was 27.9 nM and the “(IC50 CDK12 high ATP) to (Degradation DC50 CDK12) ratio” value [3] was >320. It also gave an IC50 [4] of 178 nM.
For `Brc1cnn2c(NCc3nc4ccccc4[nH]3)nc(N3C[C@@H]4CN[C@@H]4C3)nc12.O=C(O)C(F)(F)F` [Example 267, trifluoroacetic acid-N-[(1H-benzimidazol-2-yl)methyl]-8-bromo-2-[(1S,5S)-3,6-diazabicyclo[3.2.0]heptan-3-yl]pyrazolo[1,5-a][1,3,5]triazin-4-amine (1/1)], the IC50 [2] was 69.4 nM, the DC50 [3] was 31.9 nM and the “(IC50 CDK12 high ATP) to (Degradation DC50 CDK12) ratio” value [3] was >627. For the same compound, the IC50 [4] was 107 nM.
For `CN1CCN(c2nc(NCc3nc4ccccc4[nH]3)n3ncc(Br)c3n2)C(CO)C1` (single isomer, unassigned) [Example 280, [(2R or S)-1-(4-{[(1H-benzimidazol-2-yl)methyl]amino}-8-bromopyrazolo[1,5-a][1,3,5]triazin-2-yl)-4-methylpiperazin-2-yl]methanol], the IC50 [2] was 64.1 nM, the DC50 [3] was 21.4 nM and the “(IC50 CDK12 high ATP) to (Degradation DC50 CDK12) ratio” value [3] was 678. The IC50 [4] was 231 nM.
`Brc1cnn2c(NCc3nc4ccccc4[nH]3)nc(N3C[C@H]4CC[C@@H]3CN4)nc12` (single isomer, unassigned) [Example 316, N-[(1H-benzimidazol-2-yl)methyl]-8-bromo-2-{[1R or S-(1R*4R*)]-2,5-diazabicyclo[2.2.2]octan-2-yl}pyrazolo[1,5-a][1,3,5]triazin-4-amine] was tested, and the IC50 [2] was 7.16 nM, the DC50 [3] was 5.62 nM and the “(IC50 CDK12 high ATP) to (Degradation DC50 CDK12) ratio” value [3] was 519. It also gave an IC50 [4] of 22.8 nM.
With `c1ccc2[nH]c(CNc3nc(N4C[C@@H]5CCCN[C@@H]5C4)nc4c(C5CC5)cnn34)nc2c1` [Example 249, N-[(1H-benzimidazol-2-yl)methyl]-8-cyclopropyl-2-[(4aS,7aS)-octahydro-6H-pyrrolo[3,4-b]pyridin-6-yl]pyrazolo[1,5-a][1,3,5]triazin-4-amine] the IC50 [2] was 4.28 nM, the DC50 [3] was 6.48 nM and the “(IC50 CDK12 high ATP) to (Degradation DC50 CDK12) ratio” value [3] was >2626. The IC50 [4] was 40.3 nM.
With `Fc1ccc2[nH]c(CNc3nc(N4CCOCC4)nc4c(C5CCOCC5)cnn34)nc2c1F` [Example 276, N-[(4,5-difluoro-1H-benzimidazol-2-yl)methyl]-2-(morpholin-4-yl)-8-(oxan-4-yl)pyrazolo[1,5-a][1,3,5]triazin-4-amine] the IC50 [2] was 165 nM, the DC50 [3] was 38.8 nM and the “(IC50 CDK12 high ATP) to (Degradation DC50 CDK12) ratio” value [3] was >516. For the same compound, the IC50 [4] was 258 nM.
For `CN(CC1CC1)c1nc(NCc2nc3ccccc3[nH]2)n2ncc(Br)c2n1` [Example 287, N^4-[(1H-benzimidazol-2-yl)methyl]-8-bromo-N^2-(cyclopropylmethyl)-N^2-methylpyrazolo[1,5-a][1,3,5]triazine-2,4-diamine], the IC50 [2] was 33.2 nM, the DC50 [3] was 101 nM and the “(IC50 CDK12 high ATP) to (Degradation DC50 CDK12) ratio” value [3] was 106. The IC50 [4] was 34.3 nM.
With `N[C@H]1CN(c2nc(NCc3nc4ccccc4[nH]3)n3ncc(Br)c3n2)CC12CC2` [Example 259, 2-[(7R)-7-amino-5-azaspiro[2.4]heptan-5-yl]-N-[(1H-benzimidazol-2-yl)methyl]-8-bromopyrazolo[1,5-a][1,3,5]triazin-4-amine] the IC50 [2] was 11.9 nM, the DC50 [3] was 7.16 nM and the “(IC50 CDK12 high ATP) to (Degradation DC50 CDK12) ratio” value [3] was 362. For the same compound, the IC50 [4] was 31.9 nM.
For `Brc1cnn2c(NCc3nc4cccnc4[nH]3)nc(N3CCNCC3)nc12.O=CO` [Example 19, 8-bromo-N-[(3H-imidazo[4,5-b]pyridin-2-yl)methyl]-2-(piperazin-1-yl)pyrazolo[1,5-a][1,3,5]triazin-4-amine formic acid salt], the DC50 [3] was 10.9 nM and the “(IC50 CDK12 high ATP) to (Degradation DC50 CDK12) ratio” value [3] was 1056.
In the case of `NC12CC1CN(c1nc(NCc3nc4ccccc4[nH]3)n3ncc(Br)c3n1)C2` (stereo not shown) [Example 258, 2-(1-amino-3-azabicyclo[3.1.0]hexan-3-yl)-N-(1H-benzimidazol-2-ylmethyl)-8-bromo-pyrazolo[1,5-a][1,3,5]triazin-4-amine], the IC50 [2] is reported as 27.9 nM, the DC50 [3] is reported as 3.79 nM and the “(IC50 CDK12 high ATP) to (Degradation DC50 CDK12) ratio” value [3] is reported as 1239. The IC50 [4] was 55.5 nM.
In the case of `NC1(C(F)(F)F)CCN(c2nc(NCc3nc4ccccc4[nH]3)n3ncc(Br)c3n2)C1` (stereo not shown) [Example 266, 2-[3-amino-3-(trifluoromethyl)pyrrolidin-1-yl]-N-(1H-benzimidazol-2-ylmethyl)-8-bromo-pyrazolo[1,5-a][1,3,5]triazin-4-amine], the IC50 [2] is reported as 102 nM, the DC50 [3] is reported as 52.4 nM and the “(IC50 CDK12 high ATP) to (Degradation DC50 CDK12) ratio” value [3] is reported as 66. The IC50 [4] was 133 nM.
In the case of `Brc1cnn2c(NCc3nc4ccccc4[nH]3)nc(NCC3CC3)nc12` [Example 284, N^4-[(1H-benzimidazol-2-yl)methyl]-8-bromo-N^2-(cyclopropylmethyl)pyrazolo[1,5-a][1,3,5]triazine-2,4-diamine], the IC50 [2] is reported as 73.8 nM, the DC50 [3] is reported as 48.5 nM and the “(IC50 CDK12 high ATP) to (Degradation DC50 CDK12) ratio” value [3] is reported as 113. For the same compound, the IC50 [4] was 73.5 nM.
With `Brc1cnn2c(NCc3nc4ccccc4[nH]3)nc(N3C[C@H]4CN[C@H]4C3)nc12.O=C(O)C(F)(F)F` [Example 255, trifluoroacetic acid-N-[(1H-benzimidazol-2-yl)methyl]-8-bromo-2-[(1R,5R)-3,6-diazabicyclo[3.2.0]heptan-3-yl]pyrazolo[1,5-a][1,3,5]triazin-4-amine (1/1)] the IC50 [2] was 32.8 nM, the DC50 [3] was 19.2 nM and the “(IC50 CDK12 high ATP) to (Degradation DC50 CDK12) ratio” value [3] was >1044. For the same compound, the IC50 [4] was 61 nM.
For `COc1cccc2[nH]c(CNc3nc(N4CCOCC4)nc4c(CC(F)(F)F)cnn34)nc12` [Example 277, N-[(4-methoxy-1H-benzimidazol-2-yl)methyl]-2-(morpholin-4-yl)-8-(2,2,2-trifluoroethyl)pyrazolo[1,5-a][1,3,5]triazin-4-amine], the IC50 [2] was 30.9 nM, the DC50 [3] was 4.48 nM and the “(IC50 CDK12 high ATP) to (Degradation DC50 CDK12) ratio” value [3] was 1071. The IC50 [4] was 40.2 nM.
